This note sets out measurements from US5646308A, “Benzopyran derivatives” (Chugai Seiyaku Kabushiki Kaisha, priority 1992, dated 1997).

The subject of experiment [1] is Rat Aorta. Description: Test with Excised Aorta of Rat: relaxation of lasting KCl-induced contraction. Conditions: rat thoracic aorta rings, 30 mM KCl contraction, Krebs-Henseleit, 37° C., tension 2 g; read-out: IC50 (50% inhibitory concentration, relaxation of lasting contraction following KCl addition), Rat Aorta. Also noted: species or system male Sprague Dawley rat. How it is done:
Test with Excised Aorta of Rat
The thoracic aorta was excised from a male Sprague Dawley rat (450 to 600 g) and cut into 2 mm wide ring preparations. Each preparation was suspended in 10 ml of an organ bath containing a Krebs-Henseleit solution (NaCl: 119; KCl: 4.8; CaCl2 ·2H2 O: 2.53; KH2 PO4 : 1.2; MgSO4 ·7H2 O: 1.2; NaHCO3 : 24.8; glucose: 10 (mM); 37° C.) under a tension of 2 g, and a mixed gas of 95% O2 and 5% CO2 was bubbled therethrough. Isometric contractions of the preparation were recorded by means of an FD pick-up. […] The activity of a test compound to relax a lasting contraction following the KCl addition was evaluated by obtaining a 50% inhibitory concentration (IC50).
The compounds of the present invention obtained in the foregoing Examples and, for comparison, Cromakalim were used as test compounds.

For experiment [2], the system named is histamine-induced increase in respiratory tract inner pressure. The experiment in a line: Study on Antiasthmatic Activity: inhibition of histamine-induced increase in respiratory tract inner pressure. Conditions: Cavia porcellus, 10 min; anesthetized guinea pig, intraduodenal, 0.3% CMC suspension; histamine 5 to 10 μg/kg i.v. every 10 minutes; read-out: ED50 (dose for 50% inhibition of the histamine-induced increase in respiratory tract inner pressure). Format: in vivo, male hartley guinea pig. How it is done: Study on Antiasthmatic Activity
A mid-line incision was made in the neck of a male hartley guinea pig (600 to 800 g, CRJ) under anesthesia with […] (40 mg/kg, i.p.). The trachea, the […], and the left carotid artery were exposed, and a cannula was inserted into each of them. The inner pressure of the respiratory tract was measured while applying artificial respiration through the tracheal cannula. The blood pressure was measured through the arterial cannula, and the heart rate was determined from the pulse. Pentobarbital for anesthesia maintenance was continuously administered through the venous cannula. A mid-line incision was made on the abdomen to expose the duodenum, and a canuula for intraduodenal administration was inserted thereinto. After the postoperative convalescene of 30 to 60 minutes, histamine (5 to 10 μg/kg) was intravenously administered every 10 minutes. After it was confirmed that a respiratory tract inner pressure rise reaction was stably obtained, a test compound in the form of a 0.3% CMC suspension was intraduodenally administered. The histamine dose was so selected that the respiratory tract inner pressure might rise to 20 to 40 cmH2 O after every intravenous administration. After administration of the test compound, intrvenous administration of histamine at 10 minutes intervals was continued. The histamine-induced increase in respiratory tract inner pressure after the administration of the test compound was compared with that before the administration.

Experiment [3] relates to Guinea Pig Tracheal Muscle. The experiment in a line: Test with Guinea Pig Tracheal Muscle: relaxing activity on spontaneous tension. More on the design: species or system male Hartley guinea pig. The conditions noted are these: Cavia porcellus, relaxation by 1 mM aminophylline = 100%, 37° C., tension 1 g, read-out: IC50 (concentration exhibiting 50% relaxing activity), Guinea Pig Tracheal Muscle. How it is done: Test with Guinea Pig Tracheal Muscle
The trachea was excised from a male Hartley guinea pig (450 to 550 g) to make chain preparations. The preparation was suspended In a bath containing the same Krebs-henseleit solution as used in Test Example 1 (37° C.) through which a mixed gas of 95% O2 and 5% CO2 was bubbled. Isometric contractions of the preparation were recorded under a tension of 1 g.
The same test compounds as used in Test Example 1 were used.

Molecules are shown by their SMILES.

The ED50 is the dose at which the effect has come halfway, by size or by number of responders. As to `CNC(=O)C1=CC(C)(COC)Oc2ccc([N+](=O)[O-])cc21` (stereo not shown) [1(2), 2-methoxymethyl-N,2-dimethyl-6-nitro-2H-1-benzopyran-4-carboxamide], the IC50 came out at 59 nM in experiment [1] and 86 nM in experiment [3]. Besides, the ED50 in experiment [2] worked out at 0.1 mg/kg.
`CC1(C)Oc2ccc(C#N)cc2[C@@H](N2CCCC2=O)[C@@H]1O` (relative stereo) [Cromakalim, reference compound]: the IC50 in experiment [1] amounted to 180 nM; in experiment [3], 790 nM. For the same molecule, in experiment [2], the ED50 is 1 to 3 mg/kg.
Consider `CNC(=O)C1=CC(CF)(CF)Oc2ccc([N+](=O)[O-])cc21` [Example 7, 2,2-Bis(fluoromethyl)-N-methyl-6-nitro-2H-1-benzopyran-4-carboxamide], for which the IC50 in experiment [1] came out at 6 nM; in experiment [3], 10 nM. For the same molecule, the ED50 in experiment [2] was found to be 0.01 mg/kg.
Consider `CN=C(NC#N)C1=CC(C)(COC)Oc2ccc([N+](=O)[O-])cc21` (stereo not shown) [Example 3, N-Cyano-2-methoxymethyl-N',2-dimethyl-6-nitro-2H-1-benzopyran-4-amidine], for which the IC50 in experiment [1] worked out at 97 nM; in experiment [3], 260 nM.
The matching figures for `CNC(=S)C1=CC(C)(COC)Oc2ccc([N+](=O)[O-])cc21` (stereo not shown) [Example 2, 2-Methoxymethyl-N,2-dimethyl-6-nitro-2H-1-benzopyran-4-carbothioamide]: 17 nM and 29 nM.
For `N#CCCNC(=O)C1=CC(CF)(CF)Oc2ccc([N+](=O)[O-])cc21` [Example 10, N-(2-cyanoethyl)-2,2-bis(fluoromethyl)-6-nitro-2H-1-benzopyran-4-carboxamide] the same measures were 2.1 nM and 5 nM.
As for `CN=C(NC#N)C1=CC(CF)(CF)Oc2ccc([N+](=O)[O-])cc21` [Example 9, N-Cyano-2,2-bis(fluoromethyl)-N'-methyl-6-nitro-2H-1-benzopyran-4-amidine], the IC50 in experiment [1] turned out to be 14 nM; in experiment [3], 41 nM.
Turning to `CNC(=S)C1=CC(CF)(CF)Oc2ccc([N+](=O)[O-])cc21` [Example 8, 2,2-Bis(fluoromethyl)-N-methyl-6-nitro-2H-1-benzopyran-4-carbothioamide], the IC50 was 0.28 nM in experiment [1] and 3 nM in experiment [3].
